# Source: patent US20080300147A1, “Detection and Treatment of Fibrotic Disorders” (priority 2004, published 2008)
# Legend:
# leiomyoma = assay: Realtime PCR mRNA expression in leiomyoma, GnRHa therapy vs untreated; format: in vivo, human
# Excerpt: Tissues. Portions of leiomyoma and matched myometrium were collected from premenopausal women (N=6) who were scheduled to undergo hysterectomy for indications related to symptomatic leiomyomas. Three of the patients received GnRHa therapy for three months prior to surgery. […] To maintain a standard, all leiomyomas selected for this study were between 2 to 3 cm in diameter. […] The tissues were collected at the University of Florida affiliated Shands Hospital with prior approval obtained from the Institutional Review Board.
# (§1) Quantitative RealTime PCR. Realtime PCR was utilized for verification of 10 differentially expressed and regulated genes identified in leiomyoma and myometrium as well as LSMC and MSMC from untreated and GnRHa-treated cohorts. The selection of these genes was based not only on their expression values (up or downregulation), but classification and biological functions important to leiomyoma growth and regression, regulation by ovarian steroids, GnRHa and TGF-β. They are IL-11, CITED2, Nur77, EGR3, TGIF, TIEG, p27, p57, GAS-1 and GPRK5 representing cytokines, transcription factors, cell cycle regulators and signal transduction.
# (§2) Portions of leiomyoma and matched myometrium were collected from premenopausal women (N=27) who were scheduled to undergo hysterectomy for symptomatic uterine leiomyomas at the University of Florida affiliated Shands Hospital. Of these patients seven received GnRHa therapy for a period of three months prior to surgery. […] To maintain a standard, leiomyomas used in this study were 2 to 3 cm in diameter. Prior approval was obtained from the University of Florida Institutional Review Board for the experimental protocol of this study.
# as §2, with “patients,” for “patients”
# Realtime PCR. Briefly, total RNA was isolated from leiomyoma and matched myometrium using Trizol Reagent (INVITROGEN, Carlsbad, Calif.) and complimentary DNA was generated from 2 μg of total RNA using Taqman reverse transcription reagent. The newly synthesized cDNA was used for PCR performed in 96-well optical reaction plates with cDNA equivalent to 100 ng RNA in a volume of 50 μl reaction containing 1× Taqman Universal Master Mix, optimized concentrations of FAM-labeled probe and specific forward and reverse primer for FMOD selected from Assay on Demand (APPLIED BIOSYSTEMS). Controls included RNA subjected to RT-PCR without reverse transcriptase and PCR with water replacing cDNA.
# [1] = system: myometrial smooth muscle cells (MSMC); assay: Realtime PCR mRNA expression in treated MSMC; format: cell-based, human
# Protocol: Isolation and Culture of Leiomyoma and Myometrial Smooth Muscle Cells. […] Only untreated tissues were used for isolation of LSMC and MSMC. […] LSMC and MSMC were cultured in 6-well plates at an approximate density of 10^6 cells/well in DMEM-supplemented media containing 10% FBS. After reaching visual confluence, the cells were washed in serum-free media and incubated for 24 hrs under serum-free, phenol red-free condition (Chegini, N et al. Mol Hum Reprod, 2002, 8:1071-8).
# as §1
# Determination of TGF-β1 on global gene expression in LSMC and MSMC. All the materials utilized for this study including isolation of leiomyoma and myometrial cells are identical to those described in detail above. To determine the effect of TGF-β1 on global gene expression in LSMC and MSMC, the cells were cultured in 6-well plates at approximate density of 10^6 cells/well in DMEM-supplemented media containing 10% FBS. […] The cells were then treated with 2.5 ng/ml of TGF-β1 (R & D System, Minneapolis, […].) for 2, 6 and 12 hours. […] The cells were washed and then treated with TGF-β1 (2.5 ng/ml) for 2 hours. Parallel experiments using untreated cells were used as controls including an additional control for TGF-β type II receptor antisense and sense experiments.
# Total cellular RNA was isolated from LSMC- and MSMC-treated and untreated controls and subjected to microarray analysis. To maintain standard and allow for comparative analysis, the GeneChips used in this study were utilized, simultaneously processed and their gene expression values were subjected to global normalization and transformation. Following these unsupervised assessments the coefficient of variation was calculated for each probe set across all the chips used in this study, and the selected gene expression values of this study were independently subjected to supervised learning including R programming analysis and ANOVA with false discovery rate selected at p<0.001 (Moustakas, A. Immunol Lett, 2002, 82:85-91; Verrecchia, F. et al. J Biol Chem, 2001, 276:17058-17062). The genes identified in these cohorts were analyzed for functional annotation and visualized using Database for Annotation, Visualization, and Integrated Discovery (DAVID) software with integrated GoCharts. Following the analysis, we selected 12 of the differentially expressed and regulated genes, including 10 identified and validated in leiomyoma and myometrium from untreated and GnRHa-treated cohorts, as well as LSMC and MSMC treated in vitro with GnRHa, for validation in response to TGF-β-time dependent action using Realtime PCR. They include IL-11, EGR3, CITED2, TIEG, TGIF, Nur77, p27, p57, GAS-1 and GPRK5. In addition, the expression of Runx1 and Runx2, transcription factors that interact with TGF-β receptor signaling pathways (Zavadil, J. et al. Proc Natl Acad Sci USA, 2001, 98:6686-6691), was validated in LSMC and MSMC as well as in leiomyoma and myometrium from GnRHa-treated and untreated cohorts. Detail description of the materials and methods for Realtime PCR as well as data analysis is provided in Chegini, N. et al. J Soc Gynecol Investig, 2003, 10:161-71.
# Isolation and Culture of Leiomyoma and Myometrial Smooth Muscle Cells. Leiomyoma and myometrial smooth muscle cells (LSMC and MSMC) were isolated and cultured as previously described (Chegini, N. et al. Mol Hum Reprod, 2002, 8:1071-1078). […]
# [2] = GnRHa therapy three months vs untreated
# [3] = GnRHa 0.1 μM, 2, 6 and 12 hours
structure (smiles),measurement,setting,value
"CCNC(=O)[C@@H]1CCCN1C(=O)[C@H](CCCNC(=N)N)NC(=O)[C@H](CC(C)C)NC(=O)[C@@H](CC(C)C)NC(=O)[C@H](Cc1ccc(O)cc1)NC(=O)[C@H](CO)NC(=O)[C@H](Cc1c[nH]c2ccccc12)NC(=O)[C@H](Cc1c[nH]cn1)NC(=O)[C@@H]1CCC(=O)N1 [GnRHa, leuprolide acetate]",FMOD mRNA expression in leiomyoma,leiomyoma; GnRHa therapy three months (N=7) vs untreated,significantly reduced
same,CCN2 mRNA expression in leiomyoma,leiomyoma; [2],alters
same,CCN3 mRNA expression in leiomyoma,leiomyoma; [2],without affecting
same,CCN4 mRNA expression in leiomyoma,leiomyoma; [2],without affecting
same,fibulin-1C mRNA expression in leiomyoma,leiomyoma; [2],without affecting
same,CITED2 expression in leiomyoma,leiomyoma; GnRHa therapy vs untreated,increased
same,GPRK5 expression in leiomyoma,leiomyoma; GnRHa therapy vs untreated,inhibits
same,IL-11 expression in leiomyoma,leiomyoma; GnRHa therapy vs untreated,suppressed
same,Nur77 expression in leiomyoma,leiomyoma; GnRHa therapy vs untreated,significant elevation
same,CITED2 expression in MSMC,[1]; [3],biphasic effect
same,GPRK5 expression in MSMC,[1]; [3],inhibits
same,Runx1 expression in MSMC,[1]; [3],time-dependent inhibition
same,Runx2 expression in MSMC,[1]; [3],time-dependent inhibition
same,CCN2 mRNA expression in MSMC,"[1]; GnRHa 0.1 μM, 2, 6 and 12 hrs",inhibited
same,CCN3 mRNA expression in MSMC,"[1]; GnRHa 0.1 μM, 2, 6 and 12 hrs",inhibited
same,CCN4 mRNA expression in MSMC,"[1]; GnRHa 0.1 μM, 2, 6 and 12 hrs",inhibited
same,S100A4 mRNA expression in MSMC,"[1]; GnRHa 0.1 μM, 2, 6 and 12 hrs",inhibited
same,fibulin-1C mRNA expression in MSMC,"[1]; GnRHa 0.1 μM, 2, 6 and 12 hrs",inhibited
same,FMOD expression in MSMC,"[1]; GnRHa 0.1 μM, 2 and 6 hrs",no significant effect
same,FMOD expression in MSMC,"[1]; GnRHa 0.1 μM, 12 hrs",inhibited
same,IL-11 expression in MSMC,"[1]; GnRHa 0.1 μM, within 2 to 6 hours, control levels after 12 hours",increased
same,Nur77 expression in MSMC,"[1]; GnRHa 0.1 μM, subsequently declined to control levels",rapid induction
